Results reported in US10052311B2, “PPAR compounds for use in the treatment of fibrotic diseases” (INVENTIVA, priority 2014, dated 2018).
Values joined by “and” are separate entries in the source; they are usually repeats but may differ in a detail not shown here. Equal entries are not always repeated.

Assays:
mouse PPARδ = target: T1, mouse PPARδ (Mus musculus, UniProt P35396); assay: Transient transactivation assay, Cos-7 cells, chimeric PPARδ-Gal4, luciferase reporter; format: cell-based; conditions: Gal4 chimera, mean of 5 experiments, estimated (plateau not reached)
T1 sequence (P35396 210-440 limits assumed): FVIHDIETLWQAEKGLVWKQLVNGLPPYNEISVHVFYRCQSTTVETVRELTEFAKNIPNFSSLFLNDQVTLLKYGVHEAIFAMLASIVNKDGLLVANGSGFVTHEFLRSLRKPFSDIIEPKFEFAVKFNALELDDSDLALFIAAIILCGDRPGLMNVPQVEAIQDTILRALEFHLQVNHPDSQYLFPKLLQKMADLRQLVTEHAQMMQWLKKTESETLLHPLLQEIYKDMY
Description: (§1) Transfections were performed by a chemical agent (Jet PEI).

human PPARδ = target: T2, human PPARδ (Homo sapiens, UniProt Q03181); assay: as above; format: cell-based; conditions: Gal4 chimera, mean of 6 experiments
T2 sequence (Q03181 211-441 limits assumed): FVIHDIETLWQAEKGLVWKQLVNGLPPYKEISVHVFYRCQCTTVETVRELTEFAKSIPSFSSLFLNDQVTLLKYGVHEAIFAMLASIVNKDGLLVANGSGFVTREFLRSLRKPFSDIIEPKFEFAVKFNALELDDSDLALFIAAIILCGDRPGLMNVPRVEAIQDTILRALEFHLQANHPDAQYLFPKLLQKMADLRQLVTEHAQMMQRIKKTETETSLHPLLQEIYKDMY
Description: as §1

CCl4-exposed mice = assay: Carbon tetrachloride (CCl4)-induced liver fibrosis in mice; format: in vivo, mouse; conditions: vs vehicle
Description: Mice were allowed to habituate for at least 5 days prior to experimentation.
Sunflower oil (twice a week for 3 weeks, ip)/vehicle (once a day for 22 days po), n=7, • 2. […] CCl4 (3.5 mL/kg, twice a week for 3 weeks, ip)/vehicle (once a day for 22 days po), n=8 • 5.
Two days a week for 3 weeks, mice were intraperitoneally administered in the morning with either 100 μL of CCl4 (3.5 mL kg in sunflower oil (v/v, 1/11)) or 100 μL of sunflower oil.
Measured Parameters Collagen
mRNA extraction was performed on small frozen liver samples (50-100 mg).

anti-GBM exposed mice = assay: Anti-GBM induced glomerulonephritis in mice; format: in vivo, mouse; conditions: vs vehicle
human PPARα = target: T3, human PPARα (Homo sapiens, UniProt Q07869); assay: Transient transactivation assay, Cos-7 cells, chimeric PPARα-Gal4, luciferase reporter; format: cell-based; conditions: Gal4 chimera, mean of 6 experiments
T3 sequence (Q07869 200-468 limits assumed): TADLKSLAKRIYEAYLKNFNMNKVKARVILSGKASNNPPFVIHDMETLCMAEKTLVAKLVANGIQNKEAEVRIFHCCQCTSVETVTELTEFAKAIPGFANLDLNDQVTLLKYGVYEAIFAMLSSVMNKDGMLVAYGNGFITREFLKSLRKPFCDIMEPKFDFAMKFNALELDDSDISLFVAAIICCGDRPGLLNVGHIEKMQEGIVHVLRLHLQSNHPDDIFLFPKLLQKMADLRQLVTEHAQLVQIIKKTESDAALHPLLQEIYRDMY
Description: as §1

mouse PPARα = target: T4, mouse PPARα (Mus musculus, UniProt P23204); assay: as above; format: cell-based; conditions: Gal4 chimera, mean of 6 experiments
T4 sequence (P23204 200-468 limits assumed): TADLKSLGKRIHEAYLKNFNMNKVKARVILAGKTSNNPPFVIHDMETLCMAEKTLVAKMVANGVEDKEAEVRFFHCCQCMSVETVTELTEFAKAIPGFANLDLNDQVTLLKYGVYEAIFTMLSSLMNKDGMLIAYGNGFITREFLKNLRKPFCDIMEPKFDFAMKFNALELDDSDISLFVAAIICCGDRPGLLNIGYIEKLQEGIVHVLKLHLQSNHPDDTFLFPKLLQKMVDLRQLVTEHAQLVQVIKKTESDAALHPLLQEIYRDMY
Description: as §1

bleomycin-exposed mice = assay: Bleomycin-induced skin fibrosis in mice; format: in vivo, mouse; conditions: vs vehicle
Description: The experiments were carried out on 6-week-old male C56BL/6 mice (Janvier, Le Genest-Saint-Isle, France).
0.9% NaCl was used as control (100 μL subcutaneous injections).
On day 21, mice were sacrificed by cervical dislocation, and skin samples were taken and processed for analysis.
Lesional skin areas were excised, fixed in 4% formalin and embedded in paraffin. Five μm thick sections were stained with haematoxylin and eosin. The dermal thickness was analyzed at 100-fold magnification by measuring the distance between the epidermal-dermal junction and the dermal-subcutaneous fat junction at four sites from lesional skin of each mouse. Two independent examiners performed the evaluation before a consensus in case of more of 10% of variability of the measures.
The collagen content in lesional skin samples was explored by hydroxyproline assay. After digestion of punch biopsies (ø3 mm) in 6M HCl for three hours at 120° C., the pH of the samples was adjusted to 7 with 6M NaOH. Afterwards, samples were mixed with 0.06 M chloramine T and incubated for 20 min at room temperature. […] The absorbance was determined at 557 nm with a Spectra MAX 190 microplate spectrophotometer (Molecular Devices, Sunnyvale, Calif., USA).
Total soluble collagen in cell culture supernatants was quantified using a Sircol collagen assay (Biocolor). Briefly, cell culture supernatant was mixed with sirius red dye for 30 minutes at room temperature. After centrifugation, the pellet was dissolved in alkali reagent. Measurement was performed using a SpectraMax 190 microplate spectrophotometer (Molecular Devices) at a wavelength of 540 nm.
Data were expressed as mean±standard error of the mean. The Student t-test was used for statistical analyses. A p value of less than 0.05 was considered as a statistically significant result.

`O=C(O)CCCc1cc2cc(Cl)ccc2n1S(=O)(=O)c1ccc2ncsc2c1` [compound A, 5-Chloro-1-[(6-benzothiazolyl)sulfonyl]-1H-indole-2-butanoic acid] was tested, and the EC50 (mouse PPARδ) was 2000 nM, the EC50 (human PPARδ) was 530 nM and the “Col1a expression (liver)” value (CCl4-exposed mice; 30 mg/kg/day po 22 days) was “significantly inhibited the expression of Col1a”. For the same compound, the “TGFβ-1 expression (liver)” value (CCl4-exposed mice; 30 mg/kg/day po 22 days) was “significantly inhibited the expression of TGFβ-1”, the “decrease of collagen levels (hepatic fibrosis)” value (CCl4-exposed mice; 30 mg/kg/day po 22 days) was 80% and the “fibronectin expression (liver)” value (CCl4-exposed mice; 30 mg/kg/day po 22 days) was “significantly inhibited the expression of fibronectin”. For the same compound, the plasma triglycerides (CCl4-exposed mice; 30 mg/kg/day po 22 days) was “significantly reduced plasma triglycerides”, the “Col1a expression (liver)” value (CCl4-exposed mice; 100 mg/kg/day po 22 days) was “significantly inhibited the expression of Col1a” and the “MCP-1 expression (liver)” value (CCl4-exposed mice; 100 mg/kg/day po 22 days) was “significantly inhibited the expression of MCP-1”. For the same compound, the “TGFβ-1 expression (liver)” value (CCl4-exposed mice; 100 mg/kg/day po 22 days) was “significantly inhibited the expression of TGFβ-1”, the “fibronectin expression (liver)” value (CCl4-exposed mice; 100 mg/kg/day po 22 days) was “significantly inhibited the expression of fibronectin” and the plasma triglycerides (CCl4-exposed mice; 100 mg/kg/day po 22 days) was “significantly reduced plasma triglycerides”. For the same compound, the “α-SMA expression (liver)” value (CCl4-exposed mice; 100 mg/kg/day po 22 days) was “inhibited the expression of α-SMA compared to vehicle without reaching significance”, the “decrease of collagen levels (hepatic fibrosis)” value (CCl4-exposed mice; 100 mg/kg/day po 22 days, 100 mg/kg/day) was 89% and 90% and the “Col1a expression (kidney)” value (anti-GBM exposed mice; 30 mg/kg/day po 7 days) was “reduced”. The “Col3a expression (kidney)” value (anti-GBM exposed mice; 30 mg/kg/day po 7 days) was “reduced”, the “kidney MCP-1 levels” value (anti-GBM exposed mice; 30 mg/kg/day po 7 days) was “reduced” and the kidney osteopontin levels (anti-GBM exposed mice; 30 mg/kg/day po 7 days) was “reduced”. For the same compound, the serum urea levels (anti-GBM exposed mice; 30 mg/kg/day po 7 days) was “reduced”, the urinary albumin levels (anti-GBM exposed mice; 30 mg/kg/day po 7 days) was “reduced” and the urinary volume (anti-GBM exposed mice; 30 mg/kg/day po 7 days) was “reduced urinary volume compared to vehicle without reaching significance”. The “Col1a expression (kidney)” value (anti-GBM exposed mice; 100 mg/kg/day po 7 days) was “significantly inhibited Col1a expression”, the “Col3a expression (kidney)” value (anti-GBM exposed mice; 100 mg/kg/day po 7 days) was “significantly inhibited Col3a expression” and the “TGFβR-1 expression (kidney)” value (anti-GBM exposed mice; 100 mg/kg/day po 7 days) was “significantly inhibited TGFβ-R1 expression”. The “kidney MCP-1 levels” value (anti-GBM exposed mice; 100 mg/kg/day po 7 days) was “significantly reduced MCP-1 levels”, the kidney osteopontin levels (anti-GBM exposed mice; 100 mg/kg/day po 7 days) was “significantly reduced osteopontin levels” and the “number of pathological glomeruli” value (anti-GBM exposed mice; 100 mg/kg/day po 7 days) was “significantly reduced the number of pathological glomeruli”. For the same compound, the serum urea levels (anti-GBM exposed mice; 100 mg/kg/day po 7 days) was “significantly reduced urea levels”, the urinary albumin levels (anti-GBM exposed mice; 100 mg/kg/day po 7 days) was “reduced albumin levels compared to vehicle without reaching significance” and the urinary volume (anti-GBM exposed mice; 100 mg/kg/day po 7 days) was “reduced urinary volume compared to vehicle without reaching significance”. For the same compound, the EC50 (human PPARα) was 920 nM, the EC50 (mouse PPARα) was 290 nM and the “collagen content (skin)” value (bleomycin-exposed mice; 30 mg/kg po 21 days) was “significantly reduced the collagen content”. The dermal thickness (bleomycin-exposed mice; 30 mg/kg po 21 days) was “significantly reduced dermal thickness”, the “hydroxyproline content in lesioned skin” value (bleomycin-exposed mice; 30 mg/kg po 21 days) was “significantly lower” and the “collagen content (skin)” value (bleomycin-exposed mice; 100 mg/kg po 21 days) was “significantly reduced the collagen content”. For the same compound, the dermal thickness (bleomycin-exposed mice; 100 mg/kg po 21 days) was “more significantly reduced dermal thickness” and the “hydroxyproline content in lesioned skin” value (bleomycin-exposed mice; 100 mg/kg po 21 days) was “significantly lower”.
